From article PMC6717004 (Toxicology in vitro : an international journal published in …, 2019)
Like-named read-outs stand apart in the source and are kept apart here. Marks after values point to notes of the source that are not given here.

How the values were obtained:
human plasma [1] = conditions: cited from earlier work; for reported Fub based on RED: human plasma, ref Wetmore et al.
pooled human plasma [2] = assay: Rapid Equilibrium Dialysis; assay type: in vitro ADME; conditions: 10 μM, 37 °C, 4 hours, 8K MWCO membrane
[3] = assay type: in vitro ADME; conditions: RED with PBS in both chambers, 10 μM, 4 hours, 8K MWCO
pooled human plasma [4] = assay: Solid Phase Micro-Extraction; assay type: in vitro ADME; conditions: 10 μM, room temperature, C18 fibers
human plasma [5] = conditions: ref Musteata et al., 2006; cited from earlier work
[6] = ref Wetmore, 2015, Wetmore et al., 2012

## c1cc2c3c(cccc3c1)CC2 [Acenaphthene]
Human plasma [1]; [6]
  Literature % unbound (equilibrium dialysis): 4.5%^b

## c1ccc(-c2ccccc2)cc1 [Biphenyl]
Human plasma [1]
  Literature % unbound (equilibrium dialysis): 1.6%^b

## CNC(=O)Oc1cccc2ccccc12 [Carbaryl]
Human plasma [1]; 2012
  reported Fub based on RED: 70%
Human plasma [1]; [6]
  Literature % unbound (equilibrium dialysis): 69%^b

## COc1cc(N)c(Cl)cc1C(=O)NC1CCN(CCCOc2ccc(F)cc2)CC1OC (stereo not drawn) [Cisapride, reference compound]
Pooled human plasma [2]
  unbound fraction (Fub) by RED: most highly bound
Human plasma [1]; ref FDA package insert
  Literature % unbound (equilibrium dialysis): 2-3%^c

## CC(C)NCC(O)c1ccc(O)c(O)c1 (stereo not drawn) [Isoproterenol, reference compound]
Pooled human plasma [2]
  unbound fraction (Fub) by RED: mostly free
Human plasma [1]; ref Kelly and McDevitt, 1978
  Literature % unbound (equilibrium dialysis): 35%^a

## c1ccc2ccccc2c1 [Naphthalene]
[3]
  protein-free free fraction (equilibration percentage): > 80%
Human plasma [1]; 2012
  reported Fub based on RED: ~ 2%

## CC1(C)C(C=C(Cl)Cl)C1C(=O)OCc1cccc(Oc2ccccc2)c1 (stereo not drawn) [Permethrin]
Human plasma [1]; 2012
  reported Fub based on RED: 0%

## Cc1nc(N(C)C)nc(OC(=O)N(C)C)c1C [Pirimicarb]
Human plasma [1]; [6]
  Literature % unbound (equilibrium dialysis): 16%^b

## CC(C)NCC(O)COc1cccc2ccccc12 (stereo not drawn) [Propranolol]
Pooled human plasma [4]
  unbound fraction (Fub) by SPME: consistent with the reported value
Human plasma [5]
  Literature % unbound (SPME): 25%^e

## c1cc2ccc3cccc4ccc(c1)c2c34 [Pyrene]
Human plasma [1]; [6]
  Literature % unbound (equilibrium dialysis): 2.4%^b
